From ChEMBL document CHEMBL2412976, “Structure optimization of 2-benzamidobenzoic acids as PqsD inhibitors for Pseudomonas aeruginosa infections and elucidation of binding mode by SPR, STD NMR, and molecular docking” (J Med Chem, 2013)
Positions count from the first letter of the chain named. Active and inactive are the calls of the source. The calls are words filed in the database; no cut-off is given here.

How the values were obtained:
[1] = Inhibition of Pseudomonas aeruginosa PqsD using ACoA/beta-ketodecanoic acid as substrate assessed as HHQ formation incubated for 10 mins prior to ACoA/beta-ketodecanoic acid addition measured for 40 mins
Pseudomonas aeruginosa [2] = experiment: Inhibition of Pseudomonas aeruginosa PqsD assessed as HHQ formation at 50 uM incubated 30 mins prior to substrate addition
[3] = Binding affinity to Pseudomonas aeruginosa wild-type PqsD by isothermal titration calorimetry
[4] = system: T1, 2-heptyl-4(1H)-quinolone synthase PqsD (Pseudomonas aeruginosa), A0A0C7ACN7 [H258F]; experiment: Binding affinity to Pseudomonas aeruginosa PqsD H257F mutant expressed in Escherichia coli BL21 (lambdaDE3) cells by surface plasmon resonance analysis
T1 sequence (whole entry): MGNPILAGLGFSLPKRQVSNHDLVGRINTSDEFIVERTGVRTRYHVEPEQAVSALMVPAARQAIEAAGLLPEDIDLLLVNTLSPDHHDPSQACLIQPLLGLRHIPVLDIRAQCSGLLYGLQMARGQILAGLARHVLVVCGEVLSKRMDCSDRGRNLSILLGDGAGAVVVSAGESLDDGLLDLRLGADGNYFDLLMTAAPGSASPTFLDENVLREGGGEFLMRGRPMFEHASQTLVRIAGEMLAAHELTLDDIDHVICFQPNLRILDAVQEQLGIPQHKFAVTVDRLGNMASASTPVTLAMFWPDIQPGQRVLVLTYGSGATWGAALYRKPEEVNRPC

[5] = system: T2, 2-heptyl-4(1H)-quinolone synthase PqsD (Pseudomonas aeruginosa), A0A0C7ACN7 [C113A]; experiment: Binding affinity to Pseudomonas aeruginosa PqsD C112A mutant expressed in Escherichia coli BL21 (lambdaDE3) cells by surface plasmon resonance analysis
T2 sequence (whole entry): T1 sequence (whole entry) with C113A, F258H

[6] = system: T3, 2-heptyl-4(1H)-quinolone synthase PqsD (Pseudomonas aeruginosa), A0A0C7ACN7 [S318F]; experiment: Binding affinity to Pseudomonas aeruginosa PqsD S317F mutant expressed in Escherichia coli BL21 (lambdaDE3) cells by surface plasmon resonance analysis
T3 sequence (whole entry): T1 sequence (whole entry) with F258H, S318F

Pseudomonas aeruginosa [7] = experiment: Binding affinity to Pseudomonas aeruginosa wild-type PqsD expressed in Escherichia coli BL21 (lambdaDE3) cells by surface plasmon resonance analysis
[8] = Inhibition of Pseudomonas aeruginosa PqsD using ACoA/beta-ketodecanoic acid as substrate assessed as HHQ formation incubated for 30 mins prior to ACoA addition followed by 10 mins after treated with beta-ketodecanoic acid measured for 40 mins
Pseudomonas aeruginosa [9] = experiment: Binding affinity to Pseudomonas aeruginosa PqsD at 20 uM incubated prior to ACoA addition by surface plasmon resonance analysis in presence of ACoA
Pseudomonas aeruginosa [10] = experiment: Binding affinity to Pseudomonas aeruginosa PqsD at 20 uM by surface plasmon resonance analysis in presence of ACoA
Pseudomonas aeruginosa [11] = experiment: Binding affinity to Pseudomonas aeruginosa PqsD at 20 uM by surface plasmon resonance analysis in absence of ACoA
Pseudomonas aeruginosa [12] = experiment: Binding affinity to Pseudomonas aeruginosa wild-type PqsD by NMR spectroscopy analysis
Pseudomonas aeruginosa [13] = experiment: Binding affinity to Pseudomonas aeruginosa PqsD at 100 uM by surface plasmon resonance analysis in presence of ACoA

CCN(CC)S(=O)(=O)c1cc(C(=O)Nc2ccc(F)cc2C(=O)O)ccc1Br
IC50 [1]: 6.6 µM

CCN(CC)S(=O)(=O)c1cccc(C(=O)Nc2ccc([N+](=O)[O-])cc2C(=O)O)c1
IC50 [1]: 8.9 µM

CCN(CC)S(=O)(=O)c1cccc(C(=O)Nc2cc(Cl)ccc2C(=O)O)c1
IC50 [1]: 9.4 µM

CCN(CC)S(=O)(=O)c1cccc(C(=O)Nc2cccc(OC)c2C(=O)O)c1
inhibition (Pseudomonas aeruginosa [2]): 44%

CCN(CC)S(=O)(=O)c1cccc(C(=O)Nc2ccccc2C(N)=O)c1
inhibition (Pseudomonas aeruginosa [2]): 21%

CCN(CC)S(=O)(=O)c1cccc(C(=O)Nc2ccc(-c3ccccc3)cc2C(=O)O)c1
Kd [3]: 5.2 µM
Activity [4]: Active
Activity [5]: Active
Activity [6]: Active
Activity (Pseudomonas aeruginosa [7]): Active
IC50 [8]: 4.2 µM
Activity (Pseudomonas aeruginosa [9]): Active
Activity (Pseudomonas aeruginosa [10]): Active
IC50 [1]: 3 µM
Activity (Pseudomonas aeruginosa [11]): Active

CCN(CC)S(=O)(=O)c1cccc(C(=O)Nc2ccc(-c3ccc(C(=O)O)cc3)cc2C(=O)O)c1
IC50 [8]: 2 µM
IC50 [1]: 2.7 µM

CCN(CC)S(=O)(=O)c1cc(C(=O)Nc2ccc(Br)cc2C(=O)O)ccc1Br
IC50 [1]: 3.8 µM

O=C(Nc1ccccc1C(=O)O)c1cccc(S(=O)(=O)N2CCOCC2)c1
inhibition (Pseudomonas aeruginosa [2]): 16%

CCN(CC)S(=O)(=O)c1cccc(C(=O)Nc2ccc(-c3cccc(C(N)=O)c3)cc2C(=O)O)c1
IC50 [1]: 3.8 µM

CCN(CC)S(=O)(=O)c1cccc(C(=O)Nc2cccc(Cl)c2C(=O)O)c1
IC50 [1]: 39 µM

CCN(CC)S(=O)(=O)c1cccc(C(=O)Nc2cccc(O)c2C(=O)O)c1
Activity (Pseudomonas aeruginosa [12]): Active
IC50 [8]: 1.1 µM
IC50 [1]: 1.2 µM

O=C(Nc1ccccc1C(=O)O)c1cccc(S(=O)(=O)N2CCCC2)c1
inhibition (Pseudomonas aeruginosa [2]): 47%

CCN(CC)S(=O)(=O)c1ccc(C(=O)Nc2ccc(Br)cc2C(=O)O)cc1
IC50 [1]: 13 µM

CCN(CC)S(=O)(=O)c1cccc(C(=O)Nc2ccc(-c3cccc(C(=O)O)c3)cc2C(=O)O)c1
IC50 [8]: 1.6 µM
IC50 [1]: 1.5 µM

CCc1ccc(C(=O)Nc2ccccc2C(=O)O)cc1S(=O)(=O)N(CC)CC
inhibition (Pseudomonas aeruginosa [2]): 39%

CCN(CC)S(=O)(=O)c1cccc(C(=O)Nc2cc(F)ccc2C(=O)O)c1
IC50 [1]: 8 µM

CCN(CC)S(=O)(=O)c1cc(C(=O)Nc2ccccc2C(=O)O)ccc1C
IC50 [1]: 27.3 µM

CCN(CC)S(=O)(=O)c1cccc(C(=O)Nc2cccc(C(=O)O)c2)c1
inhibition (Pseudomonas aeruginosa [2]): 13%

CCN(CC)S(=O)(=O)c1cccc(C(=O)Nc2cccc(F)c2C(=O)O)c1
IC50 [1]: 24.9 µM

O=C(Nc1ccccc1C(=O)O)c1ccc(-c2ccccc2)c(Oc2ccccc2)c1
IC50 [1]: 6.6 µM

CCN(CC)S(=O)(=O)c1cccc(C(=O)Nc2ccc(Br)cc2C(=O)O)c1
Activity [4]: Active
Activity [5]: Active
Activity [6]: Active
Activity (Pseudomonas aeruginosa [7]): Active
IC50 [8]: 7 µM
Activity (Pseudomonas aeruginosa [10]): Active
IC50 [1]: 9.9 µM
Activity (Pseudomonas aeruginosa [11]): Active

CCN(CC)S(=O)(=O)c1cccc(C(=O)Nc2ccc(-c3ccc(C(N)=O)cc3)cc2C(=O)O)c1
IC50 [1]: 1.9 µM

CCN(CC)C(=O)c1cccc(C(=O)Nc2ccccc2C(=O)O)c1
inhibition (Pseudomonas aeruginosa [2]): < 10%

CCN(CC)S(=O)(=O)c1cccc(C(=O)Nc2cc([N+](=O)[O-])ccc2C(=O)O)c1
IC50 [1]: 6.3 µM

CCN(Cc1ccccc1)S(=O)(=O)c1cccc(C(=O)Nc2ccccc2C(=O)O)c1
Activity (Pseudomonas aeruginosa [12]): Active
IC50 [8]: 12.9 µM
IC50 [1]: 16.5 µM

CCN(CC)S(=O)(=O)c1cccc(C(=O)Nc2ccc(C#N)cc2C(=O)O)c1
IC50 [1]: 26.2 µM

CCN(CC)C(=O)c1cccc(C(=O)Nc2ccc(Br)cc2C(=O)O)c1
IC50 [1]: 25.5 µM

CN(C)S(=O)(=O)c1cccc(C(=O)Nc2ccccc2C(=O)O)c1
inhibition (Pseudomonas aeruginosa [2]): 35%

CCN(CC)S(=O)(=O)c1cccc(C(=O)Nc2ccc(C)cc2C(=O)O)c1
IC50 [1]: 18.4 µM

CCN(CC)S(=O)(=O)c1ccc(C(=O)Nc2ccccc2C(=O)O)cc1
inhibition (Pseudomonas aeruginosa [2]): 44%

CCCN(CCC)S(=O)(=O)c1cccc(C(=O)Nc2ccccc2C(=O)O)c1
IC50 [1]: 5.4 µM

O=C(Nc1ccccc1C(=O)O)c1cccc(S(=O)(=O)N2CCCCCC2)c1
IC50 [1]: 14.8 µM

CCN(CC)S(=O)(=O)c1cccc(C(=O)Nc2ccc(F)cc2C(=O)O)c1
IC50 [1]: 11.4 µM

Cc1ccc(S(=O)(=O)c2cc(O)c3ccccc3c2O)cc1
IC50 [8]: 1.1 µM
Activity (Pseudomonas aeruginosa [13]): inactive
IC50 [1]: 0.15 µM

CCN(CC)S(=O)(=O)c1cc(C(=O)Nc2ccccc2C(=O)O)ccc1Br
Activity [4]: Active
Activity [5]: Active
Activity [6]: Active
Activity (Pseudomonas aeruginosa [7]): Active
IC50 [1]: 6.9 µM

NS(=O)(=O)c1cccc(C(=O)Nc2ccccc2C(=O)O)c1
IC50 [1]: 43.6 µM

CCN(CC)S(=O)(=O)c1cccc(C(=O)Nc2ccccc2C(=O)O)c1
Activity (Pseudomonas aeruginosa [12]): Active
IC50 [8]: 19.4 µM
IC50 [1]: 19.8 µM
inhibition (Pseudomonas aeruginosa [2]): 69%

O=C(Nc1ccccc1C(=O)O)c1cccc(S(=O)(=O)N2CCCCC2)c1
IC50 [1]: 14.4 µM

O=[N+]([O-])c1ccccc1C(O)c1ccccc1 (configuration not stated)
IC50 [1]: 3.2 µM

CCN(CC)S(=O)(=O)c1cccc(C(=O)Nc2ccc(C(F)(F)F)cc2C(=O)O)c1
IC50 [1]: 12.4 µM
